{
  "source": "PubChem BioAssay AID1745844",
  "about": "(Carcinogenic Potency Database (CPDB), 2022)",
  "tested_on": "rodent lifetime carcinogenesis bioassay, tumor incidence TD50",
  "test": "carcinogenic potency in animals, long-term in vivo studies, CPDB compilation (AID 1745844)",
  "note": "The source made the active and inactive calls. How the calls were made is not given here.",
  "data": [
    {"smiles": "CC(C)(C)NCC(O)c1cc(O)cc(O)c1", "note": "(configuration not stated)", "values": [
      {"measurement": "TD50", "setting": "rat, strain Charles River CD (Sprague-Dawley), females, in feed, site: mesovarium, lesion: leiomyoma, dosed 104 weeks, study length 104 weeks", "result": 410, "unit": "mg/kg/day"}
    ]},
    {"smiles": "NC1=NCN([C@@H]2O[C@H](CO)[C@@H](O)[C@H]2O)C(=O)N1", "values": [
      {"measurement": "TD50", "setting": "rat, strain Fischer 344, males, i.p., site: any site (literature study), lesion: one or several types, types not named, dosed 52 weeks, study length 52 weeks", "result": 20.7, "unit": "mg/kg/day"}
    ]},
    {"smiles": "CC(C)(Oc1ccc(C2CC2(Cl)Cl)cc1)C(=O)O", "note": "(configuration not stated)", "values": [
      {"measurement": "TD50", "setting": "mouse, strain C57BL/6N, males, in feed, site: liver, lesion: hepatocellular adenoma, dosed 78 weeks, study length 78 weeks", "result": 5.89, "unit": "mg/kg/day"},
      {"measurement": "TD50", "setting": "mouse, strain C57BL/6N, males, in feed, site: liver, lesion: hepatocellular adenoma, dosed 89 weeks, study length 91 weeks", "result": 19.2, "unit": "mg/kg/day"},
      {"measurement": "TD50", "setting": "mouse, strain C57BL/6N, males, in feed, site: liver, lesion: hepatocellular carcinoma, dosed 78 weeks, study length 78 weeks", "result": 12.3, "unit": "mg/kg/day"},
      {"measurement": "TD50", "setting": "mouse, strain C57BL/6N, males, in feed, site: liver, lesion: hepatocellular carcinoma, dosed 89 weeks, study length 91 weeks", "result": 46.4, "unit": "mg/kg/day"},
      {"measurement": "TD50", "setting": "mouse, strain C57BL/6N, males, in feed, site: liver, lesion: several types, types named in the paper, dosed 78 weeks, study length 78 weeks", "result": 4.17, "unit": "mg/kg/day"},
      {"measurement": "TD50", "setting": "mouse, strain C57BL/6N, males, in feed, site: liver, lesion: several types, types named in the paper, dosed 89 weeks, study length 91 weeks", "result": 12.1, "unit": "mg/kg/day"},
      {"measurement": "TD50", "setting": "rat, strain Fischer 344, females, in feed, site: stomach, glandular, lesion: carcinoid tumor, malignant, dosed 104 weeks, study length 104 weeks", "result": 531, "unit": "mg/kg/day"},
      {"measurement": "carcinogen call", "setting": "rat, strain Fischer 344, males, in feed, site: liver, lesion: hepatocellular carcinoma, dosed 60 weeks, study length 60 weeks", "result": "positive"},
      {"measurement": "carcinogen call", "setting": "rat, strain Fischer 344, males, in feed, site: liver, lesion: neoplastic nodule, dosed 60 weeks, study length 60 weeks", "result": "positive"},
      {"measurement": "carcinogen call", "setting": "rat, strain Fischer 344, males, in feed, site: liver, lesion: several types, types named in the paper, dosed 60 weeks, study length 60 weeks", "result": "positive"},
      {"measurement": "carcinogen call", "setting": "rat, strain Fischer 344, males, in feed, site: liver, lesion: several types, types named in the paper, dosed 95 weeks, study length 95 weeks", "result": "positive"},
      {"measurement": "TD50", "setting": "rat, strain Fischer 344, males, in feed, site: stomach, glandular, lesion: carcinoid tumor, malignant, dosed 104 weeks, study length 104 weeks", "result": 103, "unit": "mg/kg/day"},
      {"measurement": "carcinogen call", "setting": "rat, strain Fischer 344, males, in feed, site: testis, lesion: Leydig-cell tumor, dosed 95 weeks, study length 95 weeks", "result": "negative (inactive)"}
    ]},
    {"smiles": "COc1cc(-c2ccc(N=C=O)c(OC)c2)ccc1N=C=O", "values": [
      {"measurement": "TD50", "setting": "mouse, strain B6C3F1, females, in feed, site: any site (literature study), lesion: several types, types named in the paper, dosed 78 weeks, study length 103 weeks", "result": "32800 mg/kg/day (inactive)"},
      {"measurement": "TD50", "setting": "mouse, strain B6C3F1, males, in feed, site: any site (literature study), lesion: several types, types named in the paper, dosed 78 weeks, study length 103 weeks", "result": "24000 mg/kg/day (inactive)"},
      {"measurement": "TD50", "setting": "mouse, strain B6C3F1, males, in feed, site: liver, lesion: hepatocellular adenoma + hepatocellular carcinoma + neoplastic nodule, dosed 78 weeks, study length 103 weeks", "result": 12100, "unit": "mg/kg/day"},
      {"measurement": "TD50", "setting": "mouse, strain B6C3F1, males, in feed, site: lung, lesion: alveolar/bronchiolar adenoma + alveolar/bronchiolar carcinoma, dosed 78 weeks, study length 103 weeks", "result": 87900, "unit": "mg/kg/day"},
      {"measurement": "TD50", "setting": "rat, strain Fischer 344, females, oral dosing, site: all sites + uterus, lesion: leukemia + lymphoma + endometrial stromal polyp, dosed 78 weeks, study length 104 weeks", "result": 1450, "unit": "mg/kg/day"},
      {"measurement": "TD50", "setting": "rat, strain Fischer 344, females, oral dosing, site: all sites, lesion: leukemia + lymphoma, dosed 78 weeks, study length 104 weeks", "result": 2280, "unit": "mg/kg/day"},
      {"measurement": "TD50", "setting": "rat, strain Fischer 344, females, oral dosing, site: any site (literature study), lesion: several types, types named in the paper, dosed 78 weeks, study length 104 weeks", "result": 773, "unit": "mg/kg/day"},
      {"measurement": "TD50", "setting": "rat, strain Fischer 344, females, oral dosing, site: ear + Zymbal's gland, lesion: sebaceous adenocarcinoma + squamous-cell carcinoma + trichoepithelioma, dosed 78 weeks, study length 104 weeks", "result": 2590, "unit": "mg/kg/day"},
      {"measurement": "TD50", "setting": "rat, strain Fischer 344, females, oral dosing, site: liver, lesion: hepatocellular adenoma + hepatocellular carcinoma + neoplastic nodule, dosed 78 weeks, study length 104 weeks", "result": 17100, "unit": "mg/kg/day"},
      {"measurement": "TD50", "setting": "rat, strain Fischer 344, females, oral dosing, site: uterus, lesion: endometrial stromal polyp, dosed 78 weeks, study length 104 weeks", "result": 2740, "unit": "mg/kg/day"},
      {"measurement": "TD50", "setting": "rat, strain Fischer 344, males, oral dosing, site: all sites + skin of foot and toe + skin of back + skin of flank + skin, lesion: leukemia + lymphoma + keratoacanthoma + basal-cell tumor + papilloma, NOS + sebaceous adenoma + sebaceous adenoma and adenocarcinoma, dosed 78 weeks, study length 104 weeks", "result": 742, "unit": "mg/kg/day"},
      {"measurement": "TD50", "setting": "rat, strain Fischer 344, males, oral dosing, site: all sites, lesion: leukemia + lymphoma, dosed 78 weeks, study length 104 weeks", "result": 1270, "unit": "mg/kg/day"},
      {"measurement": "TD50", "setting": "rat, strain Fischer 344, males, oral dosing, site: any site (literature study), lesion: several types, types named in the paper, dosed 78 weeks, study length 104 weeks", "result": 809, "unit": "mg/kg/day"},
      {"measurement": "TD50", "setting": "rat, strain Fischer 344, males, oral dosing, site: ear + Zymbal's gland, lesion: squamous-cell carcinoma, dosed 78 weeks, study length 104 weeks", "result": 7010, "unit": "mg/kg/day"},
      {"measurement": "TD50", "setting": "rat, strain Fischer 344, males, oral dosing, site: liver, lesion: hepatocellular adenoma + hepatocellular carcinoma + neoplastic nodule, dosed 78 weeks, study length 104 weeks", "result": 6600, "unit": "mg/kg/day"},
      {"measurement": "TD50", "setting": "rat, strain Fischer 344, males, oral dosing, site: skin of foot and toe + skin of back + skin of flank + skin, lesion: keratoacanthoma + basal-cell tumor + papilloma, NOS + sebaceous adenoma + trichoepithelioma, dosed 78 weeks, study length 104 weeks", "result": 1770, "unit": "mg/kg/day"},
      {"measurement": "TD50", "setting": "rat, strain Fischer 344, males, oral dosing, site: skin of foot and toe + skin of back + skin of flank + skin, lesion: keratoacanthoma + basal-cell tumor + papilloma, NOS + sebaceous adenoma and adenocarcinoma + squamous-cell carcinoma + trichoepith, dosed 78 weeks, study length 104 weeks", "result": 1330, "unit": "mg/kg/day"}
    ]},
    {"smiles": "CC(=O)CN(N=O)C(N)=O", "values": [
      {"measurement": "TD50", "setting": "hamster, strain Syrian Golden, females, by gavage, site: spleen, lesion: all vascular tumors, dosed 40 weeks, study length 55 weeks", "result": 0.121, "unit": "mg/kg/day"},
      {"measurement": "TD50", "setting": "hamster, strain Syrian Golden, males, by gavage, site: spleen, lesion: hemangiosarcoma, dosed 40 weeks, study length 75 weeks", "result": 0.14, "unit": "mg/kg/day"},
      {"measurement": "TD50", "setting": "rat, strain Fischer 344, females, by gavage, site: kidney, lesion: mesenchymal neoplasm, dosed 30 weeks, study length 104 weeks", "result": 0.32, "unit": "mg/kg/day"},
      {"measurement": "TD50", "setting": "rat, strain Fischer 344, females, by gavage, site: liver, lesion: one or several types, types not named, dosed 30 weeks, study length 104 weeks", "result": 4.04, "unit": "mg/kg/day"},
      {"measurement": "TD50", "setting": "rat, strain Fischer 344, males, by gavage, site: kidney, lesion: mesenchymal neoplasm, dosed 30 weeks, study length 104 weeks", "result": 0.456, "unit": "mg/kg/day"}
    ]}
  ]
}
